Experimental findings from patent US20040147028A1, “Yeast treatment” (priority 2002, published 2004) are described below.

Read-outs that look alike come from different tables or passages of the source.

The subject of experiment [1] is yeast protoplasts. On the procedure: To ensure the competent nature of the formed protoplast to undertake endocytosis, the yeast cells were grown on a modified YEPD media in which the 2% (w/v) dextrose was replaced by 4% (w/v) sucrose as the carbon source to facilitate a mechanism for the absorption and transport of the sucrose C14 by the yeast cells. Protoplasts were formed as described above and isolated again utilising a sorbitol based density gradient. Silicon oil isolation of protoplasts is a convenient method for separating radio labelled cells from a sugar gradient solution. […] Seven micro tubes (400 ul) were prepared for pelletising the protoplasts with each containing 10 ul of Fluorinert FC 77 as a capture solution and 100 ul of Silicon Oil AR 200 (Density of 1.05 g/1) as the media to be used for the separation of sucrose C14 protoplasts. In the experiment 40 ul of a 1M sucrose (made in a 50 ml volumetric flask) was used to which was added 2 ul of the sucrose C14 stock. Then 1.2 ml of the protoplast suspension was placed into a 1.5 ml eppendoff tube and 12 ul of the 1M sucrose C14 solution was placed in the cap. The incubation time started when the cap was sealed onto the eppendoff tube. Next, 100 ul aliquots of the protoplasts were taken at 10 minute intervals and placed sequentially into a series of the prepared 400 ul tubes containing the silicon oil gradients and spun at 7000 rpm for 10 second. The tubes were removed at each time interval and cut through the upper silicon oil fraction to capture the formed protoplast pellet and resuspended in 100 ul of Milli Q water in a scintillation tube containing 3 ml of scintillation fluid. As a standard, 100 ul volumes of the 1M sucrose containing the sucrose C14 were taken for counting but not spun through the silicon oil as were the protoplasts without the isotope but these spun through the silicon oil and counted to avoid quenching correction of the protoplast extract.
A graph of time vs. counts, recorded as nmoles of absorbed sucrose was then prepared to confirm the uptake of our sucrose isotope by the competent protoplasts.
Standards were prepared and measured for background scintillation without the added isotope and 100 ul of a 1M sucrose standard continuing the isotope was measured to obtain counts for a 1 umole solution of sucrose.

The subject of experiment [2] is yeast protoplasts. The experiment is described as follows: Endocytosis study: yeast protoplasts incubated with dye-bound liposomes, confocal and transmission electron microscopy. In kind it is cell-based, Saccharomyces cerevisiae (YNN 281). The conditions noted are these: dye incubated alone with the formed protoplasts, unencapsulated. On the procedure:
An 0.8 ml aliquot of protoplast suspension was dispensed through a large orifice pipette tip (ensuring minimal disturbance of the fragile protoplast) into a sterilised eppendoff tube to which was added 0.8 ml of the liposome suspension obtained from the gel filtration. Both solutions were of equivalent densities to ensure the stability of the protoplast and gently mixed prior to incubation. The tubes were individually wrapped in foil and embedded on their side in a sheet of Styrofoam which was also wrapped in foil to ensure the tubes would remain in place and then immersed into a water bath a 37° C. for the 90 minute incubation.
A 20 ul sample of the incubated suspension was applied to a microscope slide with the edges of the cover slip sealed with an acrylic resin to inhibit drying out of the sample. The slides once made were stored in the dark to reduce the risk of a loss in fluorescence of the FITC conjugate and viewed immediately under phase contrast and fluorescence using the confocal microscope.
The technique used for preparing sections of block-mounted cells for image analysis required 0.5 ml of the protoplast-liposome suspension to be fixed with 50 ul of 1.25% (v/v) glutaraldehyde and 1.0% (w/v) paraformaldehyde in a 0.2M cacodylate buffer at pH 7.2 for 1 hour. The fixed suspension was then mixed with a similar volume of 5.0% agarose and placed at 4° C. for 20 minutes to set. […]

As for `O[14CH2]C1OC(O[C@@]2([14CH2]O)OC([14CH2]O)C(O)C2O)C(O)C(O)C1O` (stereo partly drawn) [I-Sucrose 14 C, I-sucrose-ul-14C], the “I-Sucrose 14 C uptake” value is 1.87 nmol in the experiment on yeast protoplasts [1] (time 1 min); 6.62 nmol with yeast protoplasts [1] (time 10 min); 13.4 nmol in the experiment with yeast protoplasts [1] (time 20 min); 17.9 nmol in the experiment with yeast protoplasts [1] (time 30 min); 26.6 nmol in the experiment with yeast protoplasts [1] (time 40 min); 35.9 nmol in the experiment with yeast protoplasts [1] (time 50 min). Further, in the experiment with yeast protoplasts [1] (time 60 min), the “I-Sucrose 14 C uptake” value was found to be 56.9 nmol.
Turning to `O=C(O)CN(CC(=O)O)Cc1cc2c(cc1O)Oc1cc(O)c(CN(CC(=O)O)CC(=O)O)cc1C21OC(=O)c2ccccc21` [calcein], the “passive migration across the plasma membrane of protoplasts (false positive)” value in the experiment on yeast protoplasts [2] is “some passive migration of this molecule across the plasma membrane”.
With “fluorescein isothiocyanate dextran [formula 13]”, the “passive migration across the plasma membrane of protoplasts (false positive)” value with yeast protoplasts [2] is recorded as “eliminated this situation”.
